Among the data in the OligoGym collection are calcium oscillation score values, retold here.

Bases are written 5' to 3'; sugars and linkages follow in the same order, as letters with counts (s phosphorothioate, o phosphodiester; PS: all linkages phosphorothioate). The collection does not say whether C is 5-methylated. l = locked nucleic acid (LNA); d = 2'-deoxy (DNA)

The target in the data set is Tau. Kind of data set: rat primary cortical neurons, FLIPR, 25 uM ASO.
On to GCCCTAAAGTCCCAGG (sugars l3 d10 l3, PS), for which the calcium oscillation score was 41.9 % of control.

For the sequence “AGACACCTCGTCAGCTAGCG (sugars l3 d14 l3, PS)”, the calcium oscillation score is 9.07 % of control.

With CTTTAATTTAATCACTC (sugars l4 d9 l4, PS), the calcium oscillation score was 17.3 % of control.

Turning to CCTTTGAAAGTCCTTT (sugars l4 d9 l3, PS), the calcium oscillation score is 96.4 % of control.

Regarding CTTCTGTCACTTATTTA (sugars l4 d9 l4, PS), the calcium oscillation score was 46.9 % of control.

On to “CTCAGATTTTACTTCCA (sugars l4 d11 l2, PS)”, for which the calcium oscillation score is 45.2 % of control.

Regarding TTGGGTGGAGTACGGA (sugars l3 d10 l3, PS), the calcium oscillation score is 0 % of control.

“CTTTAATTTAATCACTCA (sugars l4 d10 l4, PS)”: the calcium oscillation score is 76.6 % of control.

Consider “TTAGACCACATTTCCAT (sugars l3 d11 l3, PS)”, for which the calcium oscillation score was 96 % of control.

Turning to “TATTTCCAAATTCACTTTTA (sugars l1 d17 l2, PS)”, the calcium oscillation score is ≥ 200 % of control.

For the sequence “CTTTATTTCCAAATTCACT (sugars l5 d9 l2 d1 l2, PS)”, the calcium oscillation score is 108 % of control.

With “CTGGTTTATGATGGATGTTG (sugars l3 d14 l3, PS)”, the calcium oscillation score was 0 % of control.

For “CCCACTTTTAATTAAATTTC (sugars l3 d14 l3, PS)”, the calcium oscillation score was 76.8 % of control.

With “AAATCCCTCTACTCCAG (sugars l2 d12 l3, PS)”, the calcium oscillation score is 51.4 % of control.

With “ATTTCCAAATTCACTTTTAC (sugars lldlldddddddddllddll, PS)”, the calcium oscillation score is 120 % of control.

Turning to “ATTTCCAAATTCACTTTTAC (sugars lllldddddddddldlddll, PS)”, the calcium oscillation score is 137 % of control.

On to “TGGTTAGCCCTAAAGTCCCA (sugars l3 d14 l3, PS)”, for which the calcium oscillation score is 74.5 % of control.

Turning to CCACTCCATGTCAATC (sugars l4 d10 l2, PS), the calcium oscillation score was 69.3 % of control.

For “GACTTGGGTGGAGTACGGAC (sugars l3 d14 l3, PS)”, the calcium oscillation score was 0 % of control.

As to “TTACACCATCCAAGTCAATG (sugars l3 d14 l3, PS)”, the calcium oscillation score is 24.2 % of control.

Take CCCTTAATTTCACCCT (sugars l3 d10 l3, PS): the calcium oscillation score is 80.9 % of control.

Regarding “GTTAAGTGATTAACCAATTA (sugars l3 d14 l3, PS)”, the calcium oscillation score was 84.3 % of control.

Take TCCTGGTTTATGATGG (sugars l3 d10 l3, PS): the calcium oscillation score is 2.3 % of control.

TCAGTCCTAATCCTGT (sugars l3 d10 l3, PS): the calcium oscillation score was 53.3 % of control.

On to TGCCTAATGAGCCACA (sugars l3 d10 l3, PS), for which the calcium oscillation score is 44.4 % of control.

For “ATGTTGCCTAATGAGCCACA (sugars l3 d14 l3, PS)”, the calcium oscillation score was 31.6 % of control.

With TTTCAACTCTTAGCAT (sugars l4 d8 l4, PS), the calcium oscillation score is 70.8 % of control.

In the case of GTCACCACTTTAATCT (sugars l4 d9 l3, PS), the calcium oscillation score is 85.3 % of control.

In the case of “TCACTTTACACATTAAATTT (sugars l4 d12 l4, PS)”, the calcium oscillation score was 62.5 % of control.

Turning to “ACAGATATTCATTCCCT (sugars l4 d11 l2, PS)”, the calcium oscillation score is 44.2 % of control.

Consider CCCTAAAGTCCCAGG (sugars l3 d9 l3, PS), for which the calcium oscillation score is 72.4 % of control.

For “TCTCAGCTCTTCCATAAGCA (sugars l3 d14 l3, PS)”, the calcium oscillation score was 82.6 % of control.

For GTGGCGGTGACTGCGA (sugars l3 d10 l3, PS), the calcium oscillation score is 62.6 % of control.

Consider ACATCCTGCCATACCA (sugars l3 d11 l2, PS), for which the calcium oscillation score was 45 % of control.

Turning to “CCTGAAACACCTTTTTCC (sugars l2 d14 l2, PS)”, the calcium oscillation score is 71.1 % of control.

On to TTAGCAGAGGAACGTG (sugars l3 d10 l3, PS), for which the calcium oscillation score was 25.9 % of control.

For CCCTAAACCATGATCT (sugars l3 d10 l3, PS), the calcium oscillation score was 89.7 % of control.

As to “TCCTCACTTTACACATTA (sugars l3 d13 l2, PS)”, the calcium oscillation score is 62.5 % of control.

For “CTCTGTCACTTACTACTC (sugars l3 d13 l2, PS)”, the calcium oscillation score was 80.8 % of control.

In the case of “TTACCCATCTTAATTCATTT (sugars l4 d14 l2, PS)”, the calcium oscillation score is 96.1 % of control.

For TTTGTCATCGCTTCCA (sugars l3 d10 l3, PS), the calcium oscillation score is 20.7 % of control.

Consider “TCTCAGATTTTACTTCC (sugars l4 d11 l2, PS)”, for which the calcium oscillation score was 49.3 % of control.

Turning to “ATGTTTTTTAACTCCCA (sugars l3 d11 l3, PS)”, the calcium oscillation score was 83.5 % of control.

On to “CTTTCTACTCAATTCCAG (sugars l3 d12 l3, PS)”, for which the calcium oscillation score was 45.5 % of control.

On to ACCATGATCTTAGGCT (sugars l3 d10 l3, PS), for which the calcium oscillation score was 87.8 % of control.

As for “TTTAACTCAAATCAATTCTC (sugars l4 d12 l4, PS)”, the calcium oscillation score is 65.7 % of control.

Turning to TGGGTGATATTGTCCA (sugars l3 d10 l3, PS), the calcium oscillation score is 92.6 % of control.

Turning to “ATTTCCAAATTCACTTTTAC (sugars l3 d14 l3, PS)”, the calcium oscillation score was ≥ 200 % of control.

With “GCTCCAACCACACCTTT (sugars l2 d11 l4, PS)”, the calcium oscillation score was 87.2 % of control.

On to “GCCCATTCTACCTGGCCCAT (sugars l3 d14 l3, PS)”, for which the calcium oscillation score is 38.3 % of control.

AAGCAATAGCAAACA (sugars l3 d9 l3, PS): the calcium oscillation score was 142 % of control.

With “TGAGCACTAACTCTAAGTAG (sugars l3 d14 l3, PS)”, the calcium oscillation score is 21.4 % of control.

With CAAACAGGATACAGT (sugars l3 d9 l3, PS), the calcium oscillation score was 49.6 % of control.

Consider AAGATGAAATTTGCTC (sugars l3 d10 l3, PS), for which the calcium oscillation score is ≥ 200 % of control.

Regarding CACCCTAAACCATGAT (sugars l3 d10 l3, PS), the calcium oscillation score was 71.4 % of control.

In the case of AATAAGAAAGGAACGC (sugars l3 d9 l4, PS), the calcium oscillation score is 85.7 % of control.

Take CCATGATCTTAGGCTG (sugars l3 d10 l3, PS): the calcium oscillation score is 17.6 % of control.

“AACATATATATTACACTTC (sugars l4 d11 l4, PS)”: the calcium oscillation score was 111 % of control.

For “ACTCATCAACACCTTTTAAT (sugars l2 d14 l4, PS)”, the calcium oscillation score is 63 % of control.

As to CAGTCTTTATTAACAC (sugars l4 d8 l4, PS), the calcium oscillation score was 54 % of control.

With “CAACAAACATCTAAACACCT (sugars l4 d13 l3, PS)”, the calcium oscillation score was 78.9 % of control.

Consider “TTAACCCTTGATCATATTTG (sugars l3 d14 l3, PS)”, for which the calcium oscillation score is 14.3 % of control.

For ACCTCCTGGTTTAT (sugars l3 d8 l3, PS), the calcium oscillation score is 89.7 % of control.

Turning to CCAATTAACCGAACTG (sugars l3 d10 l3, PS), the calcium oscillation score is 55.2 % of control.

In the case of “GTTTATGATGGATGTTGCCT (sugars l3 d14 l3, PS)”, the calcium oscillation score is 3.32 % of control.

With TTTCTCTAATTGTCCAA (sugars l4 d9 l4, PS), the calcium oscillation score was 56.6 % of control.

Consider “AAACTCATTTACCAATTATC (sugars l4 d12 l4, PS)”, for which the calcium oscillation score is 56.8 % of control.

Regarding GATTAACCAATTAACC (sugars l3 d10 l3, PS), the calcium oscillation score was ≥ 200 % of control.

For “ATATTCCACACATAAACAA (sugars l4 d11 l4, PS)”, the calcium oscillation score was 62.8 % of control.

“GCTTAATAAACACCCTT (sugars l2 d11 l4, PS)”: the calcium oscillation score was 68.5 % of control.

On to TTGTGATGCAGGAG (sugars l3 d8 l3, PS), for which the calcium oscillation score was 0 % of control.

Take “CCCCAGACCATCAATTT (sugars l2 d13 l2, PS)”: the calcium oscillation score is 61.7 % of control.

For “ATCAGTCTTATCTCCCA (sugars l3 d12 l2, PS)”, the calcium oscillation score is 49.2 % of control.

On to “CCTTGAAGTCAAGCTTCTCA (sugars l3 d14 l3, PS)”, for which the calcium oscillation score is 66.4 % of control.

For TCCTGTGCTTCAGGCC (sugars l3 d10 l3, PS), the calcium oscillation score is 75.5 % of control.

Regarding “TTATTTCCAAATTCACTTTT (sugars l3 d14 l3, PS)”, the calcium oscillation score is ≥ 200 % of control.

For the sequence “ACCTCTTAGTCATCTTCCC (sugars l2 d15 l2, PS)”, the calcium oscillation score is 67.9 % of control.

In the case of “CTGATCACAAACCCTGCTTG (sugars l3 d14 l3, PS)”, the calcium oscillation score was 20.3 % of control.

Turning to “CATCCACTTAGACACTC (sugars l4 d11 l2, PS)”, the calcium oscillation score is 43.8 % of control.

Consider “ATTTTACTACTCTCTTTTCT (sugars l3 d14 l3, PS)”, for which the calcium oscillation score was 68 % of control.

As to AAGATACATGCGTCCT (sugars l3 d10 l3, PS), the calcium oscillation score was 112 % of control.

For the sequence CATTTTACTAAAACGC (sugars l4 d8 l4, PS), the calcium oscillation score is 91.6 % of control.

Regarding “TTCACCCCAAGACACAA (sugars l3 d11 l3, PS)”, the calcium oscillation score is 59 % of control.

On to GGTGATATTGTCCAGG (sugars l3 d10 l3, PS), for which the calcium oscillation score is 18.5 % of control.

For the sequence “TCTCTCTTAACTTTATTTTA (sugars l3 d13 l4, PS)”, the calcium oscillation score is 80.8 % of control.

As for TCTCTAATTGTCCAATA (sugars l4 d9 l4, PS), the calcium oscillation score is 69 % of control.

For “TCCAAGTCAATGCCTGGCTT (sugars l3 d14 l3, PS)”, the calcium oscillation score was 18.1 % of control.

For the sequence “CCACCTCCTAGAACACA (sugars l2 d13 l2, PS)”, the calcium oscillation score was 50.9 % of control.

For the sequence “TTTATTAATTCATAAATGAC (sugars l3 d14 l3, PS)”, the calcium oscillation score was 46.3 % of control.

Regarding GATCTTAGGCTGGC (sugars l3 d8 l3, PS), the calcium oscillation score is 4.6 % of control.

As to CATCAAATCCATGCAT (sugars l4 d8 l4, PS), the calcium oscillation score is 76.7 % of control.

On to “ACCAGCTAGTGGTGCCACCT (sugars l3 d14 l3, PS)”, for which the calcium oscillation score was 20.2 % of control.

Regarding “TCGCGGAAGGTCAGCTTGTG (sugars l3 d14 l3, PS)”, the calcium oscillation score was 20.3 % of control.

Regarding “CATCACCAAGTCCCAAA (sugars l2 d11 l4, PS)”, the calcium oscillation score is 81 % of control.

For “TCAACTCTTAGCATCCAC (sugars l2 d13 l3, PS)”, the calcium oscillation score is 50 % of control.
